Molecules are shown by their SMILES.

Results on four molecules are retold here after article PMC12645191, “Dicarboxylate and dicarboxylic acid appended supramolecular self-associating amphiphiles as antimicrobial agents against high priority bacterial pathogens” (Organic & Biomolecular Chemistry, 2025).

Series [1] is described as follows: metabolic stability in liver microsomes. The format is in vitro ADME, rat. As to conditions: for microsomal CLint at 1 µM: read-out: in vitro CLint; for half-life at 1 µM: read-out: in vitro t1/2; for CLint scaled at 1 µM: liver microsomes, read-out: Scale-up CLint. As for the experimental part: (§1) Metabolic stability was assessed in mouse and rat liver microsomes. Microsomes are subcellular fractions of hepatocytes and contain CYP450s, the predominant enzymes involved in first-pass metabolism.[66] […] A plasma protein binding assay was performed to assess the extent of compound binding to plasma proteins. This is key as only unbound compound is free to distribute and exert a pharmacological effect. […] To assess the potential for this sub-class of SSAs to be developed as drugs for oral administration, Caco-2 permeability assays were also performed, as a cellular model indicative of human intestinal permeability.
Section 3: Biological methods […]
In vitro Absorption, Distribution and Metabolism
These studies were performed by Contract Research Organisation (CRO) Pharmaron. The methodology provided within the ESI is published within the express permission of this organisation. The percentage of a compound recovered during the analysis process should be 100 %; any deviation from this value indicates experimental limitations such as unintended potential non-specific binding events to experimental equipment, solubility issues, etc.
Metabolic Stability in Rat and Mouse Liver Microsomes:
The metabolic stability of compounds at a concentration of 1 µM, in rat and mouse liver […]
/ mL) in the presence and absence of cofactor (NADPH) at 37 °C. Aliquots of each incubation were removed at 0.5, 5, 15, 30 and 60 minutes. The reaction was stopped by the addition of 5 volumes of cold acetonitrile containing analytical internal standard (IS).
Samples were then centrifuged at 3 °C, 220 g for 40 minutes to remove cell debris. The supernatant was aliquoted and added to ultra-pure H2O in a 1:1 ratio in preparation for LC- […]
Samples were analysed using a Shimadzu liquid chromatography system coupled to a Triple Quad 6500+ mass spectrometry (AB Inc.) Separation of compounds was achieved using an HSS T3 column (50 x 2.1 mm) at a temperature of 40 °C and a binary mobile phase gradient […]
at a flow rate of 0.7 mL/min. […]
acid in water) and 5 % solvent B (0.1 % formic acid in acetonitrile). […]
solvent B at 0.7 minutes, held for 0.5 minutes and then immedi ately returned to initial conditions. Sample analysis was by electrospray ionisation. […]

Series [2] is described as follows: dynamic light scattering (DLS) of SSA aggregates. The format is physicochemical. To be noted: 5.6 mM, H2O 5.0% EtOH, 298 K. The procedure, abridged:
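Hydrodynamic diameter (dH) determined by DLS, with zeta potential for stability, in H2O 5.0% EtOH. Aggregates examined at 5.6 mM.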

Another series deals with Caco-2 cell line. Description: bi-directional permeability in Caco-2 cell line. Type of series: in vitro ADME, human. As for the experimental part:
as §1, with “permeability. […]” for “permeability.”
Sample analysis was by electrospray ionisation. […]
Bi-directional Permeability in Caco-2 Cell Line:
The bi-directional permeability in Caco-2 cell lines was determined by seeding cells onto an HTS Transwell plate. Cells were cultivated for 14-18 days in a cell culture incubator at 37 °C, 5 % CO2, 95 % relative humidity. Cell culture medium was replaced every other day. To assess monolayer integrity the transepithelial electrical resistance (TEER) across the monolayer was measured using Millicell Epithelial volt-ohm meter prior to assay and Lucifer yellow (LY) fluorescence measurement post-assay.
Test and control compounds were prepared in DMSO and diluted in Hank’s Balanced Saline […]
Solution (HBSS, pH 7.4) to a final concentration of 5 or 10 µM. Compound was added to the […]
donor compartment of the transwell plate for both apical to basolateral (A>B) and basolateral […]
to apical (B>A) measurements, with blank HBSS being added to the receiver compartment.
The transwell plate was then incubated at 37 °C, 5 % CO2 for 2 hours.

Setting [3] is: rat liver microsomes, 1 µM, 0.5 mg protein/mL.
[4] abbreviates: Caco-2, 5 or 10 µM, HBSS pH 7.4, 2 hours.

For the molecule `O=C(O)CC[C@H](NC(=O)Nc1ccc(Br)cc1)C(=O)O` [SSA 9], the “Hepatic Extraction Ratio (ER)” value in series [1] (rat) is on record as below 0.21. Moreover, the “Predicted Hepatic CLH” value in series [1] (rat) is listed as below 14.42 mL/min/kg. Moreover, the microsomal CLint at 1 µM in series [1] (setting [3]) is below 7.5 µL/min/mg. In addition, the half-life at 1 µM in series [1] (setting [3]) was above 3.08 h. In addition, the Remaining percentage in series [1] (rat, +Cofactors, 0.5 min) was 100.00%; in series [1] (rat, +Cofactors, 5 min), 97.95%; in series [1] (rat, +Cofactors, 15 min), 96.49%; in series [1] (rat, +Cofactors, 30 min), 99.04%; in series [1] (rat, +Cofactors, 60 min) it was 100.06%; in series [1] (rat, -Cofactors, 0.5 min), 100.00%. In series [1] (rat, -Cofactors, 60 min), the Remaining percentage was found to be 102.63%. In addition, the CLint scaled at 1 µM in series [1] (rat) is below 18.3 mL/min/kg. Further, the “Polydispersity index (%)” value in series [2] (listed as 9) was 25.6 (± 1.0) %. In series [2] (listed as 9), the “dH (DLS intensity distribution peak 1 maxima)” value (“dH” for short) worked out at 178 nm.

For `O=C(O)CC[C@H](NC(=O)Nc1ccc(C(F)(F)F)cc1)C(=O)O` [SSA 1], in series [1] (rat), the “Hepatic Extraction Ratio (ER)” value was below 0.21. For the same molecule, the “Predicted Hepatic CLH” value in series [1] (rat) is on record as below 14.42 mL/min/kg. Also, the microsomal CLint at 1 µM in series [1] (setting [3]) was below 7.5 µL/min/mg. In addition, the half-life at 1 µM in series [1] (setting [3]) was above 3.08 h. Besides, the Remaining percentage in series [1] (rat, +Cofactors, 0.5 min) came out at 100.00%; in series [1] (rat, +Cofactors, 5 min), 96.56%; in series [1] (rat, +Cofactors, 15 min) it was 99.83%; in series [1] (rat, +Cofactors, 30 min), 96.48%; in series [1] (rat, +Cofactors, 60 min), 95.66%; in series [1] (rat, -Cofactors, 0.5 min), 100.00%. The Remaining percentage in series [1] (rat, -Cofactors, 60 min) is recorded as 102.14%. Besides, the CLint scaled at 1 µM in series [1] (rat) is below 18.3 mL/min/kg.

On to `O=C(O)CC[C@H](NC(=O)Nc1ccc(C(F)(F)F)cc1)C(=O)O` [SSA 2], for which, in series [1] (rat), the “Hepatic Extraction Ratio (ER)” value was below 0.21, the “Predicted Hepatic CLH” value is given as below 14.42 mL/min/kg and the “Scale-up CLint” value was below 18.30 mL/min/kg. In series [1] (setting [3]), the “in vitro CLint” value was below 7.50 µL/min/mg and the “in vitro t1/2” value was above 3.0797 h. The molecule further returned a Remaining percentage in series [1] (rat, +Cofactors, 0.5 min) of 100.00%. In series [1] (rat, +Cofactors, 5 min), this molecule showed a Remaining percentage of 95.53%. This molecule returned a Remaining percentage in series [1] (rat, +Cofactors, 15 min) of 94.28%. In series [1] (rat, +Cofactors, 30 min), this molecule came in with a Remaining percentage of 97.57%. In addition, in series [1] (rat, +Cofactors, 60 min), the Remaining percentage was 96.64%. In addition, the Remaining percentage in series [1] (rat, -Cofactors, 0.5 min) is 100.00%. This molecule gave a Remaining percentage in series [1] (rat, -Cofactors, 60 min) of 97.74%. Further, in series [2], the “Polydispersity index (%)” value is 18.2 (± 1.1) % and the “dH” value came to 140 nm. Moreover, in the series on Caco-2 cell line (Caco-2), the “Efflux Ratio” value is given as 1.71, the “Recovery (%) AP-BL” value was 99.71% and the “Recovery (%) BL-AP” value was 80.26%. Moreover, in the series on Caco-2 cell line (setting [4]), the “Papp (A-B)” value was 0.14 10-6, cm/s and the “Papp (B-A)” value is reported as 0.24 10-6, cm/s.

Regarding `O=C(O)CC[C@@H](NC(=O)Nc1ccc(C(F)(F)F)cc1)C(=O)O` [SSA 3], the “Hepatic Extraction Ratio (ER)” value in series [1] (rat) is below 0.21. For the same molecule, the “Predicted Hepatic CLH” value in series [1] (rat) is on record as below 14.42 mL/min/kg. The microsomal CLint at 1 µM in series [1] (setting [3]) is below 7.5 µL/min/mg. Also, the half-life at 1 µM in series [1] (setting [3]) is above 3.08 h. For the same molecule, the Remaining percentage amounted to 100.00% in series [1] (rat, +Cofactors, 0.5 min); 95.07% in series [1] (rat, +Cofactors, 5 min); 99.07% in series [1] (rat, +Cofactors, 15 min); 97.86% in series [1] (rat, +Cofactors, 30 min); 98.31% in series [1] (rat, +Cofactors, 60 min); 100.00% in series [1] (rat, -Cofactors, 0.5 min). Further, the Remaining percentage in series [1] (rat, -Cofactors, 60 min) is given as 104.13%. Also, the CLint scaled at 1 µM in series [1] (rat) was below 18.3 mL/min/kg. Also, in series [2] (listed as 3), the “DLS Peak 2 maxima” value is given as 1410 nm. In series [2] (listed as 3), the “Polydispersity index (%)” value is recorded as 20.2 (± 0.7) %. Also, the “dH” value in series [2] (listed as 3) stood at 154 nm.
